Here are results for one compound from publication PMC10761660, “Preclinical evaluation of an ^18F-labeled N^ε-acryloyllysine piperazide for covalent targeting of transglutaminase 2” (EJNMMI Radiopharmacy and Chemistry, 2024).

Read-outs that look alike come from different tables or passages of the source. A value given as a limit tells only on which side of the number the result lay.

One data set can be described thus: Liver microsome assay. The settings on record: for CLint scaled: read-out: predicted intrinsic clearance (pred. CLint); for half-life: t1/2 approach (at 3-4 µM), 1 mg/mL MLM, 2 mM NADPH. It is filed as in vitro ADME, murine. Here is the method: Microsome experiments with [^18F]7b in the presence of NADPH were performed according to the procedure recently described by us with slight modifications (Lemm et al. [2022]). […] [^18F]7b dissolved in 0.5% ethanol/PBS (100 µL; 0.2% ethanol final, e.g. 108 MBq/mL or 4.1 µM final) was mixed with PBS (112.5 µL) and murine liver microsomes (MLM, 12.5 µL of 20 mg/mL stock; 1 mg/mL final; Gibco™ Cat. No. MSMCPL, Lot. No. MS053-A) in a 1.5 mL Eppendorf tube and the mixture was warmed for 5 min at 37 °C. Subsequently, NADPH (25 µL of freshly prepared 20 mM solution in PBS, 2 mM final) was added and the mixture was incubated at 37 °C. As a control incubation, the NADPH solution was replaced by PBS. At distinct time points (5, 10, 15, 30, and 60 min), an aliquot (40 µL) was withdrawn and added to ice-cold CH3CN (160 µL). The mixture was vortexed for 30 s, stored on ice for 4 min and centrifuged (5 min at 16,100 × g). The resulting supernatant was used for radio-HPLC and radio-TLC analyses. For radio-HPLC, the Shimadzu Nexera X2 UHPLC system described above including the conditions for analysis was used. Radio-TLC was carried out on reversed-phase TLC plates (ALUGRAM RP-18W/UV254 from Macherey–Nagel, Düren, Germany) with a mobile phase of 40% CH3CN in water containing 0.1% trifluoroacetic acid. Visualization of radioactive spots and subsequent analysis was conducted as described above.
Testosterone (40 µM final) was used as positive control for the activity of the MLM and was separately treated and analyzed after incubation times of 5, 10, 15, 30, and 60 min as described above (0% ethanol final; HPLC gradient profile: 45% eluent B for 10 min followed by washing of the column with 45% to 95% eluent B in 1 min, 95% eluent B for 5 min, 95% to 45% eluent B in 1 min, 45% eluent B for 8 min; total time of 25 min).
For that, solutions of [^18F]7b in 0.5% ethanol/PBS (10 µL; 0.1% ethanol final, 17 MBq/mL or 1.14 µM final) were mixed with the respective tenfold concentrated solutions of 7b dissolved in 10% DMSO/PBS (5 µL, 1% DMSO final and 5/10/20/40/80 µM of 7b final), PBS (27.5 µL) and murine liver microsomes (2.5 µL of 20 mg/mL stock) in a 1.5 mL Eppendorf tube and the mixture was warmed for 5 min at 37 °C. Subsequently, NADPH (5 µL of freshly prepared 20 mM solution in PBS, 2 mM final) was added and the mixture was incubated at 37 °C. At distinct time points (5, 10, 15, 20, and 30 min), an aliquot (5 µL) was withdrawn and added to ice-cold CH3CN (40 µL). The subsequent steps were performed as described above including analysis by radio-TLC.
For the t1/2 approach at n.c.a. level, the obtained fractions of intact [^18F]7b (by radio-HPLC or radio-TLC analysis) were plotted against the time. Nonlinear regression was performed by one-phase decay (equation 1) as implemented in GraphPad Prism (GraphPad Prism 9.5.1.733), which provided the t1/2 values. The fraction at X = 0 min, Y0, was constrained to 1.0.1 Y0=Y0-Plateau×e^-k×X+Plateau
Subsequently, the intrinsic clearance, CLint (mL*min^−1*kg^−1), was calculated using equation 2 (Obach et al. [1997]; Schneider et al. [2019])2 CLint=ln2/t1/2min×fuinc×1/MLM(mg/mL)×microsomalprotein/liverweightmg/g×liverweight/bodyweightg/kg with the scaling factors of 60.1 mg/g (microsomal protein/liver weight for rats as no value for mice could be found) (Carlile et al. [1997]) and 87.5 g/kg (liver weight/body weight for mice) (Davies and Morris [1993]). The concentration of the MLMs was 1 mg/mL.
For the Vmax/Km approach, the obtained fractions of intact [^18F]7b (by radio-TLC analysis) were plotted against the time (fraction plot). The concentration plot was obtained by transformation of the fractions into concentrations of 7b by taking the experimentally determined molar activity of [^18F]7b into account (i.e. final concentration of 1.14, 6.16, 11.14, 21.14, 41.14, and 81.14 µM for 7b in the performed experiments). Both plots were analyzed by nonlinear regression according to one-phase decay (equation 1). […]

Data set [1] is described as follows: Stability in blood in vitro. It counts as in vitro ADME. The settings on record: incubation of the radiotracer in blood in vitro.

What is called half-life is how long it takes for the measured level to halve. Read a high half-life as slow decline. What is called Km is the substrate concentration at which the rate is half of its maximum. For the compound `C=CC(=O)NCCCCC(NC(=O)Cc1ccccc1)C(=O)N1CCN(c2cccc([18F])n2)CC1` (stereo not drawn) [[^18F]7b], the “fraction of intact [^18F]7b” value in “Liver microsome assay” (MLM, after 30 min in the absence of NADPH, radio-TLC) amounted to 0.984. For the same compound, the Vmax in the data set “Liver microsome assay” (Michaelis–Menten analysis, degradation by MLM (1 mg/mL)) is 0.37 µM/min; in “Liver microsome assay” (Vmax/Km approach, substrate depletion, radio-TLC), 0.37 µM*mL*min^-1*mg^-1. Moreover, the CLint scaled in the data set “Liver microsome assay” (mouse, liver microsomes, Vmax/Km approach, mice) was 1610 mL/min/kg; in “Liver microsome assay” (mouse, liver microsomes, t1/2 approach), 772 mL/min/kg. The half-life in “Liver microsome assay” (mouse, liver microsomes, radio-HPLC) worked out at 5.7 min; in the data set “Liver microsome assay” (mouse, liver microsomes, radio-TLC), 7.2 min. In addition, the Km in the data set “Liver microsome assay” (mouse, liver microsomes, Vmax/Km approach, degradation by MLM, radio-TLC) was 1.5 µM. Also, in data set [1], the “[^18F]7b remaining intact” value is given as not below 90%.
